Assays:
human glioma A 172 cells = test: Cellular Proliferation Assay (MTT); type: cell-based
Procedure: (§1) a—Cell Culture: Human malignant gliomas U 87 and A 172 cells were obtained from the American Type Culture Collection (ATCC), and grown as monolayers on the at 37° C., in Dulbecco's Modified Eagle Medium supplemented with 0.2 mM nonessential amino acids, 10% (v/v) fetal calf serum, penicillin (100 UI/mL), streptomycin ([…]) and amphotericin B (Fungizone, […]). For subcultures, confluent monolayers were gently washed with Dulbecco's phosphate—buffered saline (PBS, pH 7.2), and after a short exposure to trypsin, the cells were transferred to a new bottle containing complete growth media.
(§2) Cellular Proliferation Assay: the target cells (human glioma U 87 and A 172) were cultivated in plates of 96 wells at a concentration of 5.0×10^5 cells by well. After the cellular adherence the cells were placed in multiple POH dilutions, in triplicates, having as positive control cells growing with detergent Tween 20. The negative control were cells growing without any additive. Concentrations varying from 30%, 3%, 0.03%, 0.003%, 0.0003% (v/v) were applied and after 24 hours of incubation 1.0 mg of hydrogen acceptor 3 (4,5 dimethylthiazol-2yi)-2-5 diphenyltetrazolium bromide (MTT) solution was added in each well, and the culture was incubated for additional 3 hours. […] An ELISA reader with 490 nm filter was used to read the results.

human glioma U 87 cells = test: Cellular Proliferation Assay (MTT); type: cell-based
Procedure: as §1, §2

glial cell C6 = test: Effect on glial cell C6 growth; type: cell-based, rats; settings: various concentrations (FIG. 2)
A 172 cells = test: Studies of cell morphology; type: cell-based, human; settings: POH 0,3%
Procedure: (§3) Studies of cell morphology:_A 172 and U 87 cells were cultivated in plates of 6 wells. After 24 hours, perillyl alcohol was added to a final concentration of 0.3% (v/v). Monolayers of cells treated with POH were photographed by an optic microscope inverted NIKON TMS, to register morphological changes induced by the treatment. All studies of cell morphology were performed at least three times to ensure accurate interpretation.

U 87 cells = test: Studies of cell morphology; type: cell-based, human; settings: POH 0,3%
Procedure: as §3

A 172 glial cells = test: Chorioallantoic Membrane (CAM) Assay, anti-metastatic activity; type: in vivo, human; settings: A 172 cells exposed to POH 0,3% to 0,03% for 2 hours prior to inoculation in chick embryo chorioallantoic membrane
Procedure: (§4) After determination of cell concentration applying a Neubauer Chamber, 2×10^6 cells were incubated for 2 hours at 37° C., in D-MEM medium containing concentrations varying from […] or 3% of perillyl alcohol (Sigma), prior to inoculation on CAM.
(§5) b—Chorioallantoic Membrane (CAM) Assay: seven days old fertilized specific pathogen free chick eggs were used in this study. By transillumination in a dark chamber, the egg air camera was marked on the eggshell. The following procedures were done under aseptic conditions, in the laminar chamber. An opening was made in the upper part and another in the lateral part of the eggshell, and the air camera was mechanically displaced to the upper side by applying negative pressure at the lateral opening. Both openings were sealed. In the upper part of the egg, a small window was made. On the upper CAM, the cells were inoculated, with a sterile pipette. Eggs 1, 2 and 3 received 2×10^6 cells previously treated with POH (0.03, 0.3 and 3%, respectively) diluted D-MEM medium. Egg 4 received 2×10^6 untreated cells in D-MEM medium. Egg 5 was used as negative control (no cells inoculated). The windows were sealed and the eggs were kept at 37° C. and 60% humidity, in the horizontal position, without agitation, for seven days
(§6) Opening of the eggs. […]

U 87 glial cells = test: as above; type: in vivo, human; settings: U 87 cells exposed to POH 0,3% to 0,03% for 2 hours prior to inoculation in chick embryo chorioallantoic membrane
Procedure: as §4, §5, §6

glial cell lines = test: Inhibition of protein expression in glial cell lines; type: cell-based; settings: POH treatment in glial cell lines (FIG. 10: A 172)
rats [1] = settings: rat, in vivo
rats [2] = settings: perillyl alcohol diet; cited from earlier work

C=C(C)[C@@H]1CC=C(CO)CC1 [perillyl alcohol, p-metha, 1,7-diene-6-ol or 4-isopropenyl-cyclohexanecarbinol]
proliferation of glioma cell lines (human glioma A 172 cells; POH 30%, 3%, 0,3% and 0,03%, preliminary in vitro studies): inhibits the proliferation
cell growth (human glioma A 172 cells; various concentrations (FIG. 4)): significantly inhibited cell growth in a dose dependent manner
proliferation of glioma cell lines (human glioma U 87 cells; U 87, POH 30%, 3%, 0,3% and 0,03%, preliminary in vitro studies): inhibits the proliferation
cell growth (human glioma U 87 cells; U87, various concentrations (FIG. 3)): significantly inhibited cell growth in a dose dependent manner
cell growth (glial cell C6): significantly inhibited cell growth in a dose dependent manner
cell morphology (A 172 cells): changes in morphology, indicative of cellular differentiation
cell morphology (U 87 cells): changes in morphology, indicative of cellular differentiation
anti-metastatic activity (A 172 glial cells): anti metastatic activity
anti-metastatic activity (U 87 glial cells): anti metastatic activity
protein expression (glial cell lines): inhibition protein expression
toxicity in tissues of lung, liver, and brain (rats [1]): no toxicity
maximum dose tolerated (rats [2]): 2,5%
